Values quoted from earlier work as cited in patent US20060024360A1, “Stable injectable composition of alpha tocopheryl succinate, analogues and salts thereof” (SD Pharmaceuticals, Inc., priority 2004, published 2006).
Counter-ions that a name gives are not always drawn.

How the values were obtained:
[1] = tested on: mouse cancer line (C1271)
malignant mesothelioma = details: immunocompromised mice
[2] = tested on: color cancer liver metastases; details: in vivo
melanoma = details: mice
[3] = tested on: human gastric carcinoma cell; details: human cells

SMILES: Cc1c(C)c2c(c(C)c1OC(=O)C(=O)O)CCC(C)(CCCC(C)CCCC(C)CCCC(C)C)O2 (stereo not drawn) [alpha-tocopheryl oxalate, Alpha-tocopheryl oxalate]
- induction of apoptosis [1]: induce apoptosis
- relative potency among alpha-tocopheryl derivatives tested [1]: most potent

SMILES: Cc1c(C)c2c(c(C)c1O)CC[C@@](C)(CCC[C@H](C)CCC[C@H](C)CCCC(C)C)O2 (racemic) [alpha-tocopherol, (±)-(2RS,4′RS,8′RS)-2,5,7,8-tetramethyl-2-(4′,8′, 12′-trimethyltridecyl)-6-chromanol]
- induction of apoptosis [1]: not apoptogenic

SMILES: Cc1c(C)c2c(c(C)c1OC(=O)CC(=O)O)CCC(C)(CCCC(C)CCCC(C)CCCC(C)C)O2 (stereo not drawn) [alpha-tocopheryl malonate, Alpha-tocopheryl malonate]
- induction of apoptosis [1]: induce apoptosis

SMILES: CCOC(=O)CCC(=O)Oc1c(C)c(C)c2c(c1C)CCC(C)(CCCC(C)CCCC(C)CCCC(C)C)O2 (stereo not drawn) [alpha-tocopheryl succinate ethyl ester]
- induction of apoptosis [1]: not apoptogenic

SMILES: CC(=O)Oc1c(C)c(C)c2c(c1C)CCC(C)(CCC[C@H](C)CCC[C@H](C)CCCC(C)C)O2 (stereo partly drawn) [alpha-tocopheryl acetate]
- induction of apoptosis [1]: not apoptogenic

SMILES: Cc1c(C)c2c(c(C)c1OC(=O)c1cccnc1)CC[C@@](C)(CCC[C@H](C)CCC[C@H](C)CCCC(C)C)O2 [alpha-tocopheryl nicotinate]
- induction of apoptosis [1]: not apoptogenic

SMILES: Cc1c(O)cc2c(c1C)O[C@](C)(CCC[C@H](C)CCC[C@H](C)CCCC(C)C)CC2 [gamma-tocopherol, Gamma-tocopherol]
- induction of apoptosis [1]: not apoptogenic

SMILES: Cc1c(C)c2c(c(C)c1OC(=O)CCCCCC(=O)O)CCC(C)(CCCC(C)CCCC(C)CCCC(C)C)O2 (stereo not drawn) [alpha-tocopheryl pimelate, Alpha-tocopheryl pimelate]
- induction of apoptosis [1]: not apoptogenic

SMILES: Cc1c(C)c2c(c(C)c1OC(=O)CCC(=O)O)CC[C@@](C)(CCC[C@H](C)CCC[C@H](C)CCCC(C)C)O2 [alpha-tocopheryl succinate]
- malignant mesothelioma (malignant mesothelioma): suppressed malignant mesothelioma
- liver metastases [2]: inhibiting color cancer liver metastases
- induction of apoptosis [1]: induce apoptosis
- melanoma growth (melanoma): inhibited melanoma growth
- gastric carcinoma cell growth [3]: inhibits human gastric carcinoma cell growth
